Source: the NIST ThermoML archive (doi:10.1021/je700096m)
± gives the expanded uncertainty stated by the source.

Details: Liquid

CC(=O)N(C)C [N,N-dimethylethanamide]
Details	mass density [kg/m3]
288.15 K, 100 kPa	945.7 ± 0.5
288.15 K, 2000 kPa	946.7 ± 0.5
288.15 K, 4000 kPa	947.8 ± 0.5
288.15 K, 6000 kPa	949 ± 0.6
288.15 K, 8100 kPa	950.1 ± 0.6
288.15 K, 9900 kPa	951.1 ± 0.6
288.15 K, 12000 kPa	952.2 ± 0.6
288.15 K, 13900 kPa	953.2 ± 0.6
288.15 K, 16000 kPa	954.3 ± 0.6
288.15 K, 18100 kPa	955.4 ± 0.7
288.15 K, 20000 kPa	956.5 ± 0.7
298.15 K, 100 kPa	937 ± 0.5
298.15 K, 2000 kPa	938.1 ± 0.5
298.15 K, 4100 kPa	939.4 ± 0.6
298.15 K, 6100 kPa	940.6 ± 0.6
298.15 K, 8100 kPa	941.8 ± 0.6
298.15 K, 10000 kPa	943 ± 0.6
298.15 K, 12100 kPa	944.1 ± 0.7
298.15 K, 14200 kPa	945.3 ± 0.7
298.15 K, 16300 kPa	946.4 ± 0.7
298.15 K, 18400 kPa	947.5 ± 0.7
298.15 K, 20100 kPa	948.6 ± 0.7
308.15 K, 100 kPa	927.9 ± 0.5
308.15 K, 2000 kPa	929.1 ± 0.6
308.15 K, 4100 kPa	930.4 ± 0.6
308.15 K, 6100 kPa	931.6 ± 0.6
308.15 K, 8100 kPa	932.8 ± 0.6
308.15 K, 10100 kPa	934 ± 0.7
308.15 K, 12100 kPa	935.3 ± 0.7
308.15 K, 14200 kPa	936.5 ± 0.7
308.15 K, 16300 kPa	937.6 ± 0.7
308.15 K, 18200 kPa	938.7 ± 0.8
308.15 K, 20200 kPa	939.9 ± 0.8
318.15 K, 100 kPa	918.7 ± 0.5
318.15 K, 2000 kPa	919.8 ± 0.6
318.15 K, 4000 kPa	921.2 ± 0.6
318.15 K, 6000 kPa	922.5 ± 0.6
318.15 K, 8000 kPa	923.8 ± 0.7
318.15 K, 9900 kPa	925 ± 0.7
318.15 K, 12000 kPa	926.3 ± 0.7
318.15 K, 14000 kPa	927.5 ± 0.8
318.15 K, 16000 kPa	928.7 ± 0.8
318.15 K, 18100 kPa	930 ± 0.8
318.15 K, 20000 kPa	931.3 ± 0.8

CCCCCl [1-chlorobutane]
mass density [kg/m3]
Details	288.15 K	298.15 K	308.15 K	318.15 K
100 kPa	891.8 ± 0.2	880.6 ± 0.3	870 ± 0.3	859.1 ± 0.3
2000 kPa	893.6 ± 0.3	882.6 ± 0.3	872.1 ± 0.3	861.5 ± 0.3
4000 kPa	–	–	–	863.8 ± 0.3
4100 kPa	895.6 ± 0.3	884.9 ± 0.3	874.4 ± 0.3	–
6100 kPa	897.5 ± 0.3	886.8 ± 0.3	876.5 ± 0.3	866.3 ± 0.3
8100 kPa	899.4 ± 0.3	888.7 ± 0.3	878.6 ± 0.3	868.7 ± 0.3
10100 kPa	901.3 ± 0.3	890.9 ± 0.3	880.8 ± 0.3	870.9 ± 0.3
12100 kPa	903 ± 0.3	892.8 ± 0.3	882.9 ± 0.3	873.1 ± 0.3
14100 kPa	904.9 ± 0.3	–	–	875.1 ± 0.3
14200 kPa	–	894.7 ± 0.3	884.9 ± 0.3	–
16200 kPa	–	896.5 ± 0.3	886.8 ± 0.3	877.2 ± 0.4
16300 kPa	906.7 ± 0.3	–	–	–
18300 kPa	–	898.5 ± 0.3	888.8 ± 0.4	–
18400 kPa	908.5 ± 0.3	–	–	879.3 ± 0.4
20200 kPa	910.3 ± 0.3	–	890.6 ± 0.4	881.2 ± 0.4
20400 kPa	–	900.2 ± 0.3	–	–

CN(C)C=O [dimethylformamide]
Details	mass density [kg/m3]
288.15 K, 100 kPa	953.4 ± 0.5
288.15 K, 2100 kPa	954.5 ± 0.5
288.15 K, 4000 kPa	955.6 ± 0.5
288.15 K, 6100 kPa	956.8 ± 0.5
288.15 K, 7900 kPa	957.8 ± 0.5
288.15 K, 9900 kPa	958.9 ± 0.6
288.15 K, 12100 kPa	960.1 ± 0.6
288.15 K, 14000 kPa	961.2 ± 0.6
288.15 K, 16000 kPa	962.2 ± 0.6
288.15 K, 18000 kPa	963.3 ± 0.6
288.15 K, 19800 kPa	964.3 ± 0.6
298.15 K, 100 kPa	943.8 ± 0.5
298.15 K, 2000 kPa	945 ± 0.5
298.15 K, 4100 kPa	946.2 ± 0.5
298.15 K, 6100 kPa	947.4 ± 0.6
298.15 K, 8100 kPa	948.6 ± 0.6
298.15 K, 10100 kPa	949.8 ± 0.6
298.15 K, 12100 kPa	951 ± 0.6
298.15 K, 14100 kPa	952.1 ± 0.6
298.15 K, 16300 kPa	953.3 ± 0.7
298.15 K, 18300 kPa	954.3 ± 0.7
298.15 K, 20100 kPa	955.5 ± 0.7
308.15 K, 100 kPa	935 ± 0.5
308.15 K, 2000 kPa	936.2 ± 0.5
308.15 K, 4100 kPa	937.6 ± 0.6
308.15 K, 6100 kPa	938.9 ± 0.6
308.15 K, 8100 kPa	940 ± 0.6
308.15 K, 10100 kPa	941.2 ± 0.6
308.15 K, 12100 kPa	942.5 ± 0.7
308.15 K, 14300 kPa	943.7 ± 0.7
308.15 K, 16300 kPa	944.9 ± 0.7
308.15 K, 18300 kPa	946 ± 0.7
308.15 K, 20200 kPa	947 ± 0.7
318.15 K, 100 kPa	925.5 ± 0.5
318.15 K, 2100 kPa	926.9 ± 0.6
318.15 K, 4000 kPa	928.3 ± 0.6
318.15 K, 6000 kPa	929.6 ± 0.6
318.15 K, 7900 kPa	930.8 ± 0.6
318.15 K, 10200 kPa	932.2 ± 0.7
318.15 K, 12000 kPa	933.4 ± 0.7
318.15 K, 14000 kPa	934.5 ± 0.7
318.15 K, 16000 kPa	935.8 ± 0.7
318.15 K, 18000 kPa	937 ± 0.8
318.15 K, 20200 kPa	938.1 ± 0.8

CCCCCCCl [1-chlorohexane]
Details	mass density [kg/m3]
288.15 K, 100 kPa	882.7 ± 0.6
288.15 K, 2000 kPa	884.4 ± 0.7
288.15 K, 4100 kPa	886 ± 0.7
288.15 K, 5900 kPa	887.5 ± 0.8
288.15 K, 8100 kPa	889.2 ± 0.8
288.15 K, 10100 kPa	890.7 ± 0.9
288.15 K, 12200 kPa	892.3 ± 0.9
288.15 K, 14200 kPa	893.8 ± 0.9
288.15 K, 16200 kPa	895.2 ± 1
288.15 K, 18200 kPa	896.7 ± 1
288.15 K, 20200 kPa	898.3 ± 1.1
298.15 K, 100 kPa	873.1 ± 0.6
298.15 K, 2000 kPa	874.8 ± 0.7
298.15 K, 4100 kPa	876.6 ± 0.7
298.15 K, 6100 kPa	878.3 ± 0.8
298.15 K, 8100 kPa	879.9 ± 0.8
298.15 K, 10200 kPa	881.7 ± 0.9
298.15 K, 12100 kPa	883.3 ± 0.9
298.15 K, 14200 kPa	885 ± 1
298.15 K, 16400 kPa	886.6 ± 1
298.15 K, 18400 kPa	888.1 ± 1.1
298.15 K, 20200 kPa	889.6 ± 1.1
308.15 K, 100 kPa	864.3 ± 0.7
308.15 K, 2000 kPa	866.1 ± 0.7
308.15 K, 4100 kPa	868 ± 0.8
308.15 K, 6100 kPa	869.7 ± 0.8
308.15 K, 8100 kPa	871.5 ± 0.9
308.15 K, 10200 kPa	873.3 ± 0.9
308.15 K, 12100 kPa	875 ± 1
308.15 K, 14200 kPa	876.7 ± 1
308.15 K, 16200 kPa	878.3 ± 1.1
308.15 K, 18300 kPa	879.9 ± 1.1
308.15 K, 20200 kPa	881.5 ± 1.2
318.15 K, 100 kPa	855.1 ± 0.7
318.15 K, 2000 kPa	857 ± 0.7
318.15 K, 4000 kPa	858.9 ± 0.8
318.15 K, 6100 kPa	860.9 ± 0.9
318.15 K, 8100 kPa	862.7 ± 0.9
318.15 K, 10100 kPa	864.6 ± 1
318.15 K, 11900 kPa	866.1 ± 1
318.15 K, 14100 kPa	868.1 ± 1.1
318.15 K, 16100 kPa	869.9 ± 1.1
318.15 K, 18000 kPa	871.4 ± 1.2
318.15 K, 20000 kPa	872.8 ± 1.2

CCCCCCCCCl [1-chlorooctane]
Details	mass density [kg/m3]
288.15 K, 100 kPa	877.3 ± 1.3
288.15 K, 2000 kPa	878.8 ± 1.3
288.15 K, 4000 kPa	880.2 ± 1.4
288.15 K, 6000 kPa	881.6 ± 1.5
288.15 K, 8000 kPa	883 ± 1.5
288.15 K, 10000 kPa	884.4 ± 1.6
288.15 K, 11900 kPa	885.8 ± 1.7
288.15 K, 13900 kPa	887.1 ± 1.7
288.15 K, 16000 kPa	888.4 ± 1.8
288.15 K, 18000 kPa	889.7 ± 1.8
288.15 K, 20100 kPa	891.2 ± 1.9
298.15 K, 100 kPa	868.8 ± 1.3
298.15 K, 2000 kPa	870.2 ± 1.3
298.15 K, 4100 kPa	871.8 ± 1.4
298.15 K, 6100 kPa	873.3 ± 1.5
298.15 K, 8100 kPa	874.8 ± 1.6
298.15 K, 10000 kPa	876.2 ± 1.6
298.15 K, 12100 kPa	877.8 ± 1.7
298.15 K, 14200 kPa	879.3 ± 1.8
298.15 K, 16300 kPa	880.7 ± 1.8
298.15 K, 18300 kPa	882.1 ± 1.9
298.15 K, 20200 kPa	883.4 ± 2
308.15 K, 100 kPa	861.4 ± 1.3
308.15 K, 2000 kPa	862.8 ± 1.4
308.15 K, 4000 kPa	864.4 ± 1.4
308.15 K, 6000 kPa	865.9 ± 1.5
308.15 K, 7900 kPa	867.5 ± 1.6
308.15 K, 10100 kPa	869.1 ± 1.7
308.15 K, 12000 kPa	870.5 ± 1.7
308.15 K, 14000 kPa	872 ± 1.8
308.15 K, 15900 kPa	873.3 ± 1.9
308.15 K, 18000 kPa	874.8 ± 2
308.15 K, 20000 kPa	876.5 ± 2
318.15 K, 100 kPa	852.9 ± 1.3
318.15 K, 2000 kPa	854.5 ± 1.4
318.15 K, 4000 kPa	856.2 ± 1.5
318.15 K, 6000 kPa	857.9 ± 1.5
318.15 K, 8000 kPa	859.5 ± 1.6
318.15 K, 10000 kPa	861.2 ± 1.7
318.15 K, 12000 kPa	862.8 ± 1.8
318.15 K, 14000 kPa	864.3 ± 1.9
318.15 K, 16000 kPa	865.8 ± 1.9
318.15 K, 18000 kPa	867.3 ± 2
318.15 K, 20100 kPa	868.9 ± 2.1
